Experiments:
Assay in all cases: relative viability (nuclei count vs DMSO), 5 days (fraction); higher = more cells survive
Erlotinib = compound: C#Cc1cccc(Nc2ncnc3cc(OCCOC)c(OCCOC)cc23)c1 [Erlotinib]
Summary of the method: (§1)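 After an overnight hold at 37 °C, lung cancer cell lines in 1536-well plates were pinned with five library-drug doses (not always all listed), each √10 from the next, on vehicle-anchored plates. The cells stayed 5 days without fresh medium, then a one-step fix, permeabilisation and Hoechst stain preceded 4× imaging and MetaXpress nuclear counts. A plate passed only with control CV under 25% and at least one doubling. Viability is the median, over plates, of treated-well nuclei relative to vehicle-well nuclei.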

Phenformin = compound: N=C(N)NC(=N)NCCc1ccccc1 [Phenformin] (anchor plate); settings: 250 µM
Summary of the method: as §1

AT9283 = compound: O=C(Nc1c[nH]nc1-c1nc2ccc(CN3CCOCC3)cc2[nH]1)NC1CC1 [AT9283]
Summary of the method: as §1

| Cell Line | relative viability (Erlotinib; 0.02 µM) | relative viability (Erlotinib; 0.2 µM) | relative viability (Erlotinib; 0.6325 µM) | relative viability (Erlotinib; 2 µM) | relative viability (Phenformin) | relative viability (AT9283; 0.003 µM) | relative viability (AT9283; 0.03 µM) | relative viability (AT9283; 0.09487 µM) | relative viability (AT9283; 0.3 µM) |
| --- | --- | --- | --- | --- | --- | --- | --- | --- | --- |
| HOP-62 | 1.01 | 0.972 | 1.08 | 1.04 | 0.673 | 1 | 0.771 | 0.393 | 0.273 |
| IA-LM | 0.947 | 0.777 | 1.08 | 0.885 | – | 0.853 | 0.735 | 0.267 | 0.111 |
| LC-2-ad | 0.998 | 1.08 | 1.01 | 0.826 | 0.605 | 0.93 | 0.695 | 0.233 | 0.177 |
| LCLC-97TM1 | 1.07 | 1.14 | 1.23 | 0.972 | 0.391 | 0.841 | 0.469 | 0.159 | 0.112 |
| LCLC-103H | 1.03 | 0.919 | 1 | 0.929 | 0.348 | 0.885 | 1.02 | 0.926 | 0.376 |
| LK-2 | 0.993 | 0.864 | 1.36 | – | 0.485 | 0.937 | 0.57 | 0.168 | 0.195 |
| LOU-NH91 | 0.831 | 0.696 | 0.756 | 0.68 | 0.705 | 0.936 | 0.812 | 0.614 | 0.48 |
| LU99A | 0.932 | 0.952 | 0.913 | 0.916 | 0.886 | 0.88 | 0.477 | 0.253 | 0.186 |

Source: the supplement of paper PMC10307832
